Reference: the CheMixHub viscosity set

Test: xn = mol fraction of the nth substance listed

CS(C)=O + CCCO
Conditions	viscosity [mPa·s]
298.15 K, 101.3 kPa, x1 = 0.0789	1.75
298.15 K, 101.3 kPa, x1 = 0.1613	1.651
298.15 K, 101.3 kPa, x1 = 0.339	1.535
298.15 K, 101.3 kPa, x1 = 0.434	1.541
298.15 K, 101.3 kPa, x1 = 0.5363	1.562
298.15 K, 101.3 kPa, x1 = 0.6421	1.641
298.15 K, 101.3 kPa, x1 = 0.755	1.736
298.15 K, 101.3 kPa, x1 = 0.8737	1.845
298.15 K, 101.31 kPa, x1 = 0.1053	1.666
298.15 K, 101.31 kPa, x1 = 0.2078	1.55
298.15 K, 101.31 kPa, x1 = 0.413	1.496
298.15 K, 101.31 kPa, x1 = 0.5099	1.527
298.15 K, 101.31 kPa, x1 = 0.7025	1.664
298.15 K, 101.31 kPa, x1 = 0.7984	1.746
298.15 K, 101.31 kPa, x1 = 0.9011	1.871
303.15 K, 101 kPa, x1 = 0.5	1.425
303.15 K, 101.3 kPa, x1 = 0.0789	1.63
303.15 K, 101.3 kPa, x1 = 0.1613	1.54
303.15 K, 101.3 kPa, x1 = 0.2478	1.452
303.15 K, 101.3 kPa, x1 = 0.5363	1.436
303.15 K, 101.3 kPa, x1 = 0.6421	1.495
303.15 K, 101.3 kPa, x1 = 0.755	1.57
303.15 K, 101.3 kPa, x1 = 0.8737	1.676
308.15 K, 101.31 kPa, x1 = 0.2973	1.249
308.15 K, 101.31 kPa, x1 = 0.5099	1.29
308.15 K, 101.31 kPa, x1 = 0.5989	1.329
308.15 K, 101.31 kPa, x1 = 0.7984	1.465
308.15 K, 101.31 kPa, x1 = 0.9011	1.56
313.15 K, 101 kPa, x1 = 0.7998	1.335
318.15 K, 101.31 kPa, x1 = 0.1053	1.116
318.15 K, 101.31 kPa, x1 = 0.2078	1.064
318.15 K, 101.31 kPa, x1 = 0.2973	1.048
318.15 K, 101.31 kPa, x1 = 0.413	1.064
318.15 K, 101.31 kPa, x1 = 0.5099	1.093
318.15 K, 101.31 kPa, x1 = 0.5989	1.129
318.15 K, 101.31 kPa, x1 = 0.7025	1.189
318.15 K, 101.31 kPa, x1 = 0.7984	1.239
318.15 K, 101.31 kPa, x1 = 0.9011	1.314

O=C(O)C=Cc1ccccc1 + CCCO
viscosity [mPa·s]
Conditions	308.15 K	313.15 K	318.15 K	323.15 K
101 kPa, x1 = 0.0687	2.066	–	–	–
101 kPa, x1 = 0.0901	2.224	–	–	–
101 kPa, x1 = 0.109	2.44	–	–	–
101.33 kPa, x1 = 0.0687	2.066	1.836	1.629	1.452
101.33 kPa, x1 = 0.109	2.44	2.158	1.888	1.683

CC(=O)O.NCCO + CCO
viscosity [mPa·s], 101 kPa
Conditions	x1 = 0.0193	x2 = 0.7231	x2 = 0.7996	x2 = 0.8604	x2 = 0.9136	x2 = 0.9373	x2 = 0.9595
293.15 K	1.608	20.45	9.894	5.502	3.168	2.55	1.998
298.15 K	1.458	16.96	8.454	4.8	2.85	2.28	1.806
303.15 K	1.32	14.22	7.26	4.212	2.55	2.07	1.65

CCCCCCCCn1cc[n+](C)c1.O=[N+]([O-])[O-] + CCO
Conditions	viscosity [mPa·s]
293.15 K, 101 kPa, x2 = 0.128	464.3

CS(C)=O + CCO
Conditions	viscosity [mPa·s]
293.15 K, 100 kPa, x2 = 0.08	2.021
293.15 K, 100 kPa, x2 = 0.16	1.873
293.15 K, 100 kPa, x2 = 0.23	1.756
293.15 K, 100 kPa, x2 = 0.3	1.666
293.15 K, 100 kPa, x2 = 0.36	1.572
298.15 K, 100 kPa, x2 = 0.08	1.828
298.15 K, 100 kPa, x2 = 0.16	1.701
298.15 K, 100 kPa, x2 = 0.23	1.598
298.15 K, 100 kPa, x2 = 0.3	1.517
298.15 K, 100 kPa, x2 = 0.36	1.436
298.15 K, 101 kPa, x1 = 0.061	1.182
298.15 K, 101 kPa, x1 = 0.2	1.291
298.15 K, 101 kPa, x1 = 0.37	1.466
298.15 K, 101.3 kPa, x1 = 0.0616	1.015
298.15 K, 101.3 kPa, x1 = 0.1286	1.021
298.15 K, 101.3 kPa, x1 = 0.2019	1.022
298.15 K, 101.3 kPa, x1 = 0.2801	1.056
298.15 K, 101.3 kPa, x1 = 0.3708	1.114
298.15 K, 101.3 kPa, x1 = 0.4693	1.187
298.15 K, 101.3 kPa, x1 = 0.5814	1.298
298.15 K, 101.3 kPa, x1 = 0.7023	1.454
298.15 K, 101.3 kPa, x1 = 0.7609	1.538
298.15 K, 101.3 kPa, x1 = 0.8414	1.657
298.15 K, 101.3 kPa, x1 = 0.933	1.851
298.15 K, 101.31 kPa, x1 = 0.1026	1.034
298.15 K, 101.31 kPa, x1 = 0.1971	1.029
298.15 K, 101.31 kPa, x1 = 0.2892	1.061
298.15 K, 101.31 kPa, x1 = 0.4043	1.137
298.15 K, 101.31 kPa, x1 = 0.5029	1.234
298.15 K, 101.31 kPa, x1 = 0.62	1.352
298.15 K, 101.31 kPa, x1 = 0.7117	1.491
298.15 K, 101.31 kPa, x1 = 0.8036	1.634
298.15 K, 101.31 kPa, x1 = 0.9017	1.807
299 K, 101 kPa, x1 = 0.0519	1.711
299 K, 101 kPa, x1 = 0.1593	1.696
299 K, 101 kPa, x1 = 0.3301	1.895
299 K, 101 kPa, x1 = 0.451	2.099
299 K, 101 kPa, x1 = 0.5779	2.34
299 K, 101 kPa, x1 = 0.7807	2.572
303.15 K, 100 kPa, x2 = 0.16	1.552
303.15 K, 100 kPa, x2 = 0.3	1.39
303.15 K, 100 kPa, x2 = 0.36	1.317
303.15 K, 101 kPa, x1 = 0.2	1.191
303.15 K, 101 kPa, x1 = 0.2004	1.205
303.15 K, 101 kPa, x1 = 0.37	1.366
303.15 K, 101.3 kPa, x1 = 0.0616	0.966
303.15 K, 101.3 kPa, x1 = 0.1286	0.932
303.15 K, 101.3 kPa, x1 = 0.2019	0.884
303.15 K, 101.3 kPa, x1 = 0.2801	0.904
303.15 K, 101.3 kPa, x1 = 0.3708	0.938
303.15 K, 101.3 kPa, x1 = 0.4693	1.064
303.15 K, 101.3 kPa, x1 = 0.5814	1.201
303.15 K, 101.3 kPa, x1 = 0.7023	1.354
303.15 K, 101.3 kPa, x1 = 0.7609	1.481
303.15 K, 101.3 kPa, x1 = 0.933	1.685
308.15 K, 100 kPa, x2 = 0.16	1.426
308.15 K, 100 kPa, x2 = 0.3	1.28
308.15 K, 100 kPa, x2 = 0.36	1.213
308.15 K, 101 kPa, x1 = 0.061	1.002
308.15 K, 101 kPa, x1 = 0.2	1.091
308.15 K, 101 kPa, x1 = 0.37	1.266
308.15 K, 101.31 kPa, x1 = 0.1026	0.882
308.15 K, 101.31 kPa, x1 = 0.1971	0.893
308.15 K, 101.31 kPa, x1 = 0.2892	0.916
308.15 K, 101.31 kPa, x1 = 0.4043	0.981
308.15 K, 101.31 kPa, x1 = 0.5029	1.056
308.15 K, 101.31 kPa, x1 = 0.62	1.159
308.15 K, 101.31 kPa, x1 = 0.7117	1.26
308.15 K, 101.31 kPa, x1 = 0.8036	1.375
308.15 K, 101.31 kPa, x1 = 0.9017	1.511
313.15 K, 100 kPa, x2 = 0.08	1.402
313.15 K, 100 kPa, x2 = 0.16	1.312
313.15 K, 100 kPa, x2 = 0.23	1.237
313.15 K, 100 kPa, x2 = 0.3	1.181
313.15 K, 100 kPa, x2 = 0.36	1.121
318.15 K, 101.31 kPa, x1 = 0.1026	0.745
318.15 K, 101.31 kPa, x1 = 0.1971	0.753
318.15 K, 101.31 kPa, x1 = 0.2892	0.782
318.15 K, 101.31 kPa, x1 = 0.4043	0.835
318.15 K, 101.31 kPa, x1 = 0.5029	0.908
318.15 K, 101.31 kPa, x1 = 0.62	0.994
318.15 K, 101.31 kPa, x1 = 0.7117	1.067
318.15 K, 101.31 kPa, x1 = 0.8036	1.171
318.15 K, 101.31 kPa, x1 = 0.9017	1.28
323.15 K, 101 kPa, x1 = 0.8011	1.125

C[N+](C)(C)CCC[n+]1ccccc1.N#C[N-]C#N.N#C[N-]C#N + CCO
viscosity [mPa·s], 100 kPa
Conditions	293.15 K	313.15 K	323.15 K
x1 = 0.7003	–	–	75.75
x1 = 0.7998	614.5	161.5	99.22
